Test results taken from US12448366B2, “Solid forms of pralsetinib” (Rigel Pharmaceuticals, Inc., priority 2020, dated 2025).
Converted amounts (≈) assume the structure as drawn. Like-named read-outs stand apart in the source and are kept apart here.

Tests used:
[1] = Salt screening: XRPD of wet cake, after drying under vacuum at 50° C., after exposure to 97% relative humidity; type: physicochemical; settings: XRPD; for stability of salt solid form to humidification: 97% (>95%) relative humidity; for stability of salt solid form to drying: vacuum at 50° C.
Experimental: Stock solutions of counter-ion were prepared in EtOH, MeOH, or EtOAc, depending on solubility. […] The solvent was allowed to evaporate at room temperature over the weekend and then placed at 50° C. under vacuum for 3 hours to remove any remaining solvent. Approximately 25 volumes solvent (0.6 mL) was added to each vial for screening. The three solvents selected were EtOH, EtOAc, and IPA:water (9:1 vol). […] XRPD analysis was done in three stages. XRPD of the wet cake was done for all samples. Unique solids were then left on XRPD plates and dried under vacuum at 50° C. XRPD of unique dry solids was then done. […] The humid environment was generated by placing a beaker of saturated potassium sulfate in water in a sealed container. All XRPD patterns were compared to counter ion XRPD patterns and known free base patterns. Where solids were not of sufficient quantity to isolate, the solvent was evaporated at room temperature, the material dried at 50° C. under active vacuum for 3 hours, and then reslurried at room temperature in either MtBE or IPAc overnight after heating to 45° C. for 30 minutes.

[2] = Humidity exposure, 75% relative humidity at 40° C. for one week, XRPD; type: physicochemical; settings: for Stability 40° C./75% RH: XRPD pattern after exposure; for stability on exposure to 75% relative humidity at 40° C.: one week / 7 days, XRPD
[3] = Solubility in water and simulated fluids (fasted/fed state simulated intestinal fluid, fasted state simulated gastric fluid); type: physicochemical
[4] = One week (7 days) slurry stability by XRPD and HPLC; type: physicochemical; settings: XRPD and HPLC, listed as solid form 11-A
[5] = DSC and TGA/DSC thermal analysis; type: physicochemical
Experimental: Differential scanning calorimetry was done using a Mettler Toledo DSC3+. The desired amount of sample is weighed directly in a hermetic aluminum pan with pin-hole. A typical sample mass for is 3-5 mg. A typical temperature range is 30° C. to 300° C. at a heating rate of 10° C. per minute (total time of 27 minutes). Typical parameters for DSC are listed below.
Thermogravimetric analysis and differential scanning calorimetry was done using a Mettler Toledo TGA/DSC3+. The desired amount of sample is weighed directly in a hermetic aluminum pan with pin-hole. A typical sample mass for the measurement is 5-10 mg. A typical temperature range is 30° C. to 300° C. at a heating rate of 10° C. per minute (total time of 27 minutes). Protective and purge gasses are nitrogen (20-30 mL/min and 50-100 mL/min). Typical parameters for DSC/TGA are listed below.
Differential scanning calorimetry was performed using a Mettler Toledo DSC3+. The sample (3-5 mg) was weighed directly in a 40 μL hermetic aluminum pan with pin-hole and analyzed according to the parameters below:
Thermogravimetric analysis and differential scanning calorimetry were performed on the same sample simultaneously using a Mettler Toledo TGA/DSC3+. […] The desired amount of sample (5-10 mg) was weighed directly in a hermetic aluminum pan with pin-hole and analyzed according to the parameters below: […]

[6] = Dynamic vapor sorption (DVS); type: physicochemical; settings: for DVS Mass Change: glutarate and succinate: between 2% and 90% relative humidity; for total mass change by DVS: between 2% and 95% relative humidity; for hygroscopicity (words): DVS; for XRPD / form stability after DVS humidity cycling: XRPD before and after DVS
Experimental: Dynamic Vapor Sorption (DVS) was done using a DVS Intrinsic 1. The sample is loaded into a sample pan and suspended from a microbalance. A typical sample mass for DVS measurement is 25 mg. Nitrogen gas bubbled through distilled water provides the desired relative humidity. A typical measurement comprises the steps: • 1—Equilibrate at 50% RH • 2—50% to 2%. (50%, 40%, 30%, 20%, 10% and 2%) • a. Hold minimum of 5 mins and maximum of 60 minutes at each humidity. The pass criteria is less than 0.002% change • 3—2% to 95% (2%, 10%, 20%, 30%, 40%, 50%, 60%, 70%, 80%, 90%, 95%) • a. Hold minimum of 5 mins and maximum of 60 minutes at each humidity. The pass criteria is less than 0.002% change • 4—95% to 2% (95%, 80%, 70%, 60%, 50%, 40%, 30%, 20%, 10%, 2%) • a. Hold minimum of 5 mins and maximum of 60 minutes at each humidity. The pass criteria is less than 0.002% change • 5—2% to 50% (2%, 10%, 20%, 30%, 40%, 50%) • a. Hold minimum of 5 mins and maximum of 60 minutes at each humidity. The pass criteria is less than 0.002% change High Pressure Liquid Chromatography (HPLC)
Dynamic Vapor Sorption (DVS) was performed using a DVS Intrinsic 1. The samples (12-31 mg) was loaded into a sample pan, suspended from a microbalance and exposed to a humidified stream of nitrogen gas. The sample was held for a minimum of 5 min at each level and only progressed to the next humidity level if there was <0.002% change in weight between measurements (interval: 60 seconds) or 240 min had elapsed. The following program was used: • 1—Equilibration at 50% RH • 2—50% to 2%. (50%, 40%, 30%, 20%, 10% and 2%) • 3—2% to 95% (2%, 10%, 20%, 30%, 40%, 50%, 60%, 70%, 80%, 90%, 95%) • 4—95% to 2% (95%, 80%, 70%, 60%, 50%, 40%, 30%, 20%, 10%, 2%) • 5—2% to 50% (2%, 10%, 20%, 30%, 40%, 50%) High Performance Liquid Chromatography (HPLC)

RET = settings: patients with RET-altered NSCLC and MTC; cited from earlier work
[7] = Qualitative water solubility of salts (salt screen); type: physicochemical
[8] = Thermal treatment in DSC followed by XRPD (Example 2G); type: physicochemical
Text: Select solids were used for thermal treatment in DSC. Solids were heated to specified temperature and then cooled back to room temperature for analysis by XRPD.

[9] = Competitive slurry experiments between free base solid forms; type: physicochemical; settings: for competitive slurry in methanol:water: high ratios of water to methanol and lower temperatures

Structure (SMILES): CO[C@]1(C(=O)N[C@@H](C)c2ccc(-n3cc(F)cn3)nc2)CC[C@H](c2nc(C)cc(Nc3cc(C)[nH]n3)n2)CC1 [Solid Form 11-A, pralsetinib]
- stability of salt solid form to humidification ([1]; listed as Pattern 11-A): stable
- stability of salt solid form to humidification ([1]; listed as glutarate 11-A): stable
- stability of salt solid form to humidification ([1]; listed as solid form 11-A): stable
- stability of salt solid form to drying ([1]; listed as Pattern 11-A): stable
- stability of salt solid form to drying ([1]; listed as glutarate 11-A): stable
- stability of salt solid form to drying ([1]; listed as solid form 11-A): stable
- Stability 40° C./75% RH ([2]; listed as Glutarate 11-A): Stable
- solubility ([3]; water, room temperature, read-out: water solubility at room temperature): 240 µg/mL (≈ 450 µM)
- stability slurrying 7 days in EtOAc ([4]; EtOAc): converted to a solid form designated as solid form 11-B
- stability slurrying 7 days in EtOH ([4]; EtOH): converted to a solid form designated as solid form 11-B
- Endotherm Onset ([5]; listed as Glutarate 11-A): 177.8 °C
- mass change by DVS ([6]; between 2% and 90% relative humidity, listed as solid form 11-A): 0.48 wt. %
- mass change by DVS ([6]; between 15% and 75% relative humidity, listed as solid form 11-A): 0.27 wt. %
- DVS Mass Change ([6]; listed as Glutarate 11-A): 0.48 wt. %
- reversibility of the DVS mass change ([6]; listed as solid form 11-A): appears to be reversible

Structure (SMILES): CO[C@]1(C(=O)N[C@@H](C)c2ccc(-n3cc(F)cn3)nc2)CC[C@H](c2nc(C)cc(Nc3cc(C)[nH]n3)n2)CC1 [Compound (I), (cis)-N-((S)-1-(6-(4-fluoro-1H-pyrazol-1-yl)pyridin-3-yl)ethyl)-1-methoxy-4-(4 methyl-6-(5-methyl-1H-pyrazol-3-ylamino)pyrimidin-2-yl)cyclohexanecarboxamide]
- RET signaling (RET): attenuated
- clinical responses (RET): durable clinical responses
- off target toxicity (RET): without notable off target toxicity

Structure (SMILES): CO[C@]1(C(=O)N[C@@H](C)c2ccc(-n3cc(F)cn3)nc2)CC[C@H](c2nc(C)cc(Nc3cc(C)[nH]n3)n2)CC1 [Solid Form 10-A, pralsetinib]
- stability of salt solid form to humidification ([1]; listed as 10-A): stable
- stability of salt solid form to drying ([1]; listed as 10-A): stable
- qualitative water solubility ([7]; listed as salicylate 10-A): low solubility

Structure (SMILES): CO[C@]1(C(=O)N[C@@H](C)c2ccc(-n3cc(F)cn3)nc2)CC[C@H](c2nc(C)cc(Nc3cc(C)[nH]n3)n2)CC1 [Solid Form 12-A, pralsetinib]
- stability of salt solid form to humidification ([1]; listed as Pattern 12-A): stable
- stability of salt solid form to drying ([1]; listed as Pattern 12-A): stable
- qualitative water solubility [7]: low

Structure (SMILES): CO[C@]1(C(=O)N[C@@H](C)c2ccc(-n3cc(F)cn3)nc2)CC[C@H](c2nc(C)cc(Nc3cc(C)[nH]n3)n2)CC1 [Solid Form F, pralsetinib]
- solid form after heating to 140° C. ([8]; 140° C.): converted to solid form B

Structure (SMILES): CO[C@]1(C(=O)N[C@@H](C)c2ccc(-n3cc(F)cn3)nc2)CC[C@H](c2nc(C)cc(Nc3cc(C)[nH]n3)n2)CC1 [Solid Form B, pralsetinib]
- conversion to hydrate Solid Form C on prolonged / high humidity exposure ([2]; listed as Pattern B): not observed to convert back to hydrate XRPD Pattern C
- stability on exposure to 75% relative humidity at 40° C. ([2]; listed as Pattern B): remained unchanged
- solid form after heating to 190° C. ([8]; 190° C.): converted to solid form A
- total mass change by DVS [6]: 1.4 wt. %

Structure (SMILES): CO[C@]1(C(=O)N[C@@H](C)c2ccc(-n3cc(F)cn3)nc2)CC[C@H](c2nc(C)cc(Nc3cc(C)[nH]n3)n2)CC1 [Solid Form A, pralsetinib]
- conversion to hydrate Solid Form C on prolonged / high humidity exposure [2]: did not convert to Solid Form C
- stability on exposure to 75% relative humidity at 40° C. [2]: stable
- stability on exposure to 75% relative humidity at 40° C. ([2]; listed as Pattern A): remained unchanged
- solid form after a hold at the melting point [8]: did not convert to material with XRPD Pattern H
- solubility in simulated gastric fluid [3]: high solubility
- solubility in simulated intestinal fluid [3]: low solubility
- solubility in water [3]: low solubility
- competitive slurry in methanol:water [9]: converted to Solid Form C
- competitive slurry in methanol:water ([9]; listed as Pattern A): converted to a praletinib free base material characterized by XRPD Pattern C
- Competitive slurry MeOH: water (1:1 vol) at 23 and 50° C. ([9]; listed as Pattern A): A converts to C
- Competitive slurry isopropanol, MeOH:MtBE ([9]; listed as Pattern A): A stable
- reversibility of the DVS mass change [6]: reversible
- share of the DVS mass change occurring above 70% relative humidity [6]: 80%
- share of the DVS mass change occurring above 80% relative humidity [6]: 70%
- hygroscopicity (words) [6]: hygroscopic
- hygroscopicity (words) ([6]; listed as solid form A): hygroscopic
- DVS Water Mass Change (wt. %) ([6]; Table 3E, listed as Pattern A): 10.2 wt. %
- XRPD / form stability after DVS humidity cycling [6]: stable
- XRPD / form stability after DVS humidity cycling ([6]; listed as solid form A): Pattern A
- total mass change by DVS [6]: 10.2 wt. %
- reversible mass change by DVS ([6]; between 2-95% relative humidity): about 10%
- water mass gained by dynamic vapor sorption ([6]; between 2 and 95% relative humidity at 25° C.): 10%
- water pick-up ([6]; between 15 to 75% relative humidity): about 2%

Structure (SMILES): CO[C@]1(C(=O)N[C@@H](C)c2ccc(-n3cc(F)cn3)nc2)CC[C@H](c2nc(C)cc(Nc3cc(C)[nH]n3)n2)CC1 [freebase (Pattern FB-A)]
- Stability 40° C./75% RH [2]: Stable
- Endotherm Onset, event marked (exo) ([5]; exotherm): 162.7 (exo) ° C.
- DVS Mass Change [6]: 10.2 wt. %
